According to US5358947A, “Angiotensin II receptor blocking 2,3-substituted pyrazolo[1,5-a]-1,3,5-triazin-4(3H)-ones” (American Cyanamid Company, priority 1993, dated 1994):
Where a name gives a salt, the structure may show the parent alone.

Target: T1, Angiotensin II Receptor (Bos taurus, UniProt P25104)
T1 construct: The brownish tissue forming the adrenal cortex is scraped off and finely minced with scissors before homogenization; tissue local slaughter house (Maxwell-Cohen); host or cells: beef adrenal cortex, microsomal membranes (100,000×g pellet)
T1 sequence (P25104 1-359): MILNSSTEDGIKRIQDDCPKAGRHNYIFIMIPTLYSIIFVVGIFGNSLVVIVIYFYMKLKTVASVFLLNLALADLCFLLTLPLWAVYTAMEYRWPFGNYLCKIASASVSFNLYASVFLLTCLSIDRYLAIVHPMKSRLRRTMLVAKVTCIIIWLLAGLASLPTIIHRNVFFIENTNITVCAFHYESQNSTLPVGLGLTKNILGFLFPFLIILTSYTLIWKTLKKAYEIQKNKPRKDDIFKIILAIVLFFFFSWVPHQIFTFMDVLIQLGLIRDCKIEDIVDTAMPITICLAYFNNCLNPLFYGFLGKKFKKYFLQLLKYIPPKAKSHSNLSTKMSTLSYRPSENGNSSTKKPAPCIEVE
Assay: Angiotensin II receptor binding assay ([125I](Sar1,Ile8)AngII displacement, beef adrenal cortex membranes)
Details: 60 minutes, room temperature
From the text: Beef adrenals are obtained from a local slaughter house (Maxwell-Cohen). [^125 I](Sar^1,Ile^8)AngII, S.A. 2200 Ci/mmole, is purchased from Dupont (NEN®, Boston, Mass.). all unlabeled AngII analogs, Dimethylsulfoxide (DMSO), nucleotides, bovine serum albumin (BSA) are purchased from Sigma Chemical Co , St Louis, Mo. U.S.A.
Approximately sixteen (16) to twenty (20) beef adrenal glands are processed as follows: fresh adrenal glands received on crushed ice are cleaned of fatty tissues and the tough membranes encapsulating the glands are removed and discarded. The brownish tissue forming the adrenal cortex is scraped off and finely minced with scissors before homogenization. Care is taken to avoid contamination with medullary tissue during dissection. The scraped cortices are suspended in twenty volumes of an ice-cold buffer medium consisting of 10 mM Tris.HCl (pH 7.4 at 22° C.) and containing 1.0 mM EDTA and 0.2M sucrose. Unless otherwise indicated, all subsequent operations are done at 4° C. The tissue is homogenized in a glass homogenizer with a motor driven teflon pestle with a clearance of 1.0 mm. The homogenate is centrifuged first at low speed (3,000×g) for 10 minutes. The resulting pellet is discarded and the supernatant fluid recentrifuged at 10,000×g of 15 minutes to give a P2 pellet. This P2 pellet is discarded and the liquid phase is carefully decanted off in clean centrifuge tubes and recentrifuged at high speed (100,000×g) for 60 minutes. The translucent final pellet is harvested and combined in a small volume (20-50.0 ml) of 50.0 mM Tris.HCl buffer, pH 7.2. A 100 ul aliquot is withdrawn and the protein content of the preparation is determined by the Lowry's method (Lowry, O. H., Rosebrough, N. F., Farr, A. L. and Randall, R. J., Protein measurement with Folin phenol reagent. J. Biol. Chem., […], 265-275, 1951). The pelleted membrane is reconstituted in 50.0 mM Tris.HCl buffer containing 0.1 mM of phenylmethylsulfonyl fluoride (PMSF) to give approximately a protein concentration of 2.5 mg per ml of tissue suspension. The membrane preparation is finally aliquoted in 1.0 ml volumes and stored at -70° C. until use in the binding assays.
Binding of[^125 I](Sar^1,Ile^8)AngII
The binding of [^125 I](Sar^1 Ile^8)AngII to microsomal membranes is initiated by the addition of reconstituted membranes (1:10 vols.) in freshly made 50.0 mMTris.HCl buffer, pH 7.4 containing 0.25% heat inactivated bovine serum albumin (BSA): 80 ul membrane protein (10 to 20 ug/assay) to wells already containing 100 ul of incubatin buffer (as described above) and 20 ul [^125 I](Sar^1,Ile^8)AngII (Specific Activity 2200 Ci/mmole). Non-specific binding is measured in the presence of 1.0 uM unlabeled (Sar^1,Ile^8)AngII, added in 20 ul volume. Specific binding for [^125 I](Sar^1, Ile^8)AngII is greater than 90% In competition studies, experimental compounds are diluted in dimethylsulfoxide (DMSO) and added in 20 ul to wells before the introduction of tissue membranes. This concentration of DMSO is found to have no negative effects on the binding of [^125 I](Sar^1, Ile^8)AngII to the membranes. Assays are performed in triplicate. The wells are left undisturbed for 60 minutes at room temperature. Following incubation, all wells are harvested at once with a Brandel® Harvester especially designed for a 96 well plate (Brandel®Biomedical Research & Development Labs. Inc., Gaithersburg, Md., U.S.A.). The filter discs are washed with 10×1.0 ml of cold 0.9% NaCl to remove unbound ligand. […] This method is routinely used. The filters are removed from the filter grid and counted in a Parkard® Cobra Gamma Counter for 1 minute. (Packard Instrument Co., Downers Grove, Ill., U.S.A.). The binding data are analyzed by the non-linear interactive "LUNDON-1" program (LUNDON SOFTWARE Inc., Cleveland, Ohio U.S.A.). […]

IC50 [nM] | Compound
760 | CCCCc1nc2cc(-c3ccccc3)nn2c(=O)n1Cc1ccc(-c2ccccc2-c2nnn[nH]2)cc1 [Example 10, 2-Butyl-7-phenyl-3-[[2'-(1H-tetrazol-5-yl)[1,1'-biphenyl]-4-yl]methyl]pyrazolo[1,5-a]-1,3,5-triazin-4(3H)-one]
670 | CCCCc1nc2cc(-c3ccco3)nn2c(=O)n1Cc1ccc(-c2ccccc2-c2nnn[nH]2)cc1 [Example 11, 2-Butyl-7-(2-furanyl)-3-[[2'-(1H-tetrazol-5-yl)[1,1'-biphenyl]-4-yl]methyl]pyrazolo[1,5-a]-1,3,5-triazin-4(3H)-one]
63 | CCCCc1nc2cc(-c3ccc(F)cc3)nn2c(=O)n1Cc1ccc(-c2ccccc2-c2nnn[nH]2)cc1 [Example 12, 2-Butyl-7-(4-fluorophenyl)-3-[[2'-(1H-tetrazol-5-yl)[1,1'-biphenyl]-4-yl]methyl]pyrazolo[1,5-a]-1,3,5-triazin-4(3H)-one]
1200 | CCCCc1nc2ccnn2c(=O)n1Cc1ccc(-c2ccccc2-c2nn[nH]n2)cc1 [Example 17, 2-Butyl-3-[[2'-(1H-tetrazol-5-yl)[1,1'-biphenyl]-4-yl]methyl]pyrazolo[1,5-a]-1,3,5-triazin-4(3H) -one]
4000 | CCCCc1nc2c(Br)cnn2c(=O)n1Cc1ccc(-c2ccccc2-c2nn[nH]n2)cc1 [Example 20]
3000 | CCCCc1nc2ccnn2c(=O)n1Cc1ccc(-c2ccccc2-c2nn[nH]n2)cc1 [Example 21, 2-Butyl-3-[[2'-(1H-tetrazol-5-yl)-[[1,1'-biphenyl]-4-yl]methyl]-pyrazolo[1,5-a]-1,3,5-triazin-4(3H)-one potassium salt]
